The values below come from ChEMBL document CHEMBL5390305, “Discovery of Ligands for TRIM58, a Novel Tissue-Selective E3 Ligase” (ACS Med Chem Lett, 2023).

SMILES strings stand for the structures. Values after ≈ are worked out from the molar mass of the structure shown. Some results are limits rather than exact numbers.

Data set [1] can be described thus: Solubility of the compound at pH 6.8 by high-throughput equilibrium solubility assay. The format is physicochemical. The conditions noted are these: buffer.
Data set [2] has as its target T1, E3 ubiquitin-protein ligase TRIM58 (Homo sapiens, UniProt Q8NG06).
T1 sequence (Q8NG06 whole entry): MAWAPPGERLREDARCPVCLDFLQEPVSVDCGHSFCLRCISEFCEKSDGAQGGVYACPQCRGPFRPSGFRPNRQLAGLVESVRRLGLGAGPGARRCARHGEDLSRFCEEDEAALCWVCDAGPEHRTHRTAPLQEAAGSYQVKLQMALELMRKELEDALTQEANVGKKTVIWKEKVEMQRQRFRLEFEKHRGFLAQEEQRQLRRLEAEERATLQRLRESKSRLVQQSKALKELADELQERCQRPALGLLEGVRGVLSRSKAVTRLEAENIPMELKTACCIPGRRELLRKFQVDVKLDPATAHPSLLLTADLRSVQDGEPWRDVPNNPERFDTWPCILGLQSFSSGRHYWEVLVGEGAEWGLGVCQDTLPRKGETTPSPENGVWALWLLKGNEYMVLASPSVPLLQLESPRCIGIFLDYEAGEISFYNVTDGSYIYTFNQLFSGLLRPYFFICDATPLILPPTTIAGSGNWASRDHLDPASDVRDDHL
Nature of the data set: Displacement of Ac-DKSDLKAELERKK-C(BODIPY-FL-M)-RLAQIREEKKRKEE-NH2 peptide probe from TRIM58 (279 to 466 residue) (unknown origin) preincubated for 30 mins followed by probe addition by fluorescence polarization method. (In general: Fluorescence polarisation rises when a labelled molecule tumbles more slowly, as on binding a larger partner.)

A short description of data set [3]: Apparent permeability across apical to basolateral side in low efflux MDCK cells. The format is ADME, cell-based, Canis lupus familiaris. The conditions noted are these: dog.
Data set [4] in a line: Lipophilicity, log D of the compound in octanol/buffer system at pH 7.4 by shake-flask based LC/MSMS analysis. It counts as physicochemical.
Data set [5] addresses T1, E3 ubiquitin-protein ligase TRIM58. Nature of the data set: Binding affinity against N-terminal 6His-tagged TRIM58 (251 to 466 residue) (unknown origin) expressed in Escherichia coli BL21 (DE3) by SPR assay.

As usually defined, the thermodynamic solubility is the concentration in solution at equilibrium with solid. In general, EC50 refers to the concentration needed to bring the measured effect to its halfway point. The low end stands for higher potency in that assay, the high end for lower potency in that assay. Broadly, the Papp A→B is the apparent permeability from the apical to the basolateral side of a cell layer. In data set [1], `CNc1nc(NCC2CCNCC2)c2cc(-c3ccccc3)ccc2n1` had a solubility (thermodynamic) of 80 µM (≈ 27.8 µg/mL). In data set [2], this compound displayed a concentration for a half-maximal effect (EC50) of 12 µM. For the same compound, the Papp A→B in data set [3] came to 1.6 ×10⁻⁶ cm/s.
In general, logD refers to lipophilicity at a set pH, counting ionised and neutral species. A higher logD goes with higher lipophilicity. Regarding `CNc1nc(NCC2CCNCC2)c2cc(C3CCCCC3)ccc2n1`, in data set [1], the thermodynamic solubility is over 750 µM. Besides, the EC50 in data set [2] worked out at 6.6 µM. In addition, in data set [4], the log distribution coefficient (logD) amounted to 0.5. Moreover, in data set [3], the apparent permeability from apical to basolateral (Papp A→B) stood at 1.1 ×10⁻⁶ cm/s.
Consider `c1ccc2cc(-c3nn[nH]n3)c(NCC3CCNCC3)cc2c1`, for which, in data set [2], the EC50 was over 100 µM.
For `CN(C)CCCNc1nc(NCCc2ccccc2)c2cc(-c3ccccc3)ccc2n1`, in data set [1], the thermodynamic solubility turned out to be 40 µM (≈ 17 µg/mL). For the same compound, the EC50 in data set [2] is 12.7 µM. Moreover, the logD in data set [4] was 3.3. For the same compound, the apical-to-basolateral permeability (Papp A→B) in data set [3] stood at 24 ×10⁻⁶ cm/s.
On to `CNc1nc(NCC2CCNCC2)c2ccccc2n1`, for which the solubility (thermodynamic) in data set [1] is over 750 µM. Further, the EC50 in data set [2] is over 100 µM. The compound also came in with a pH-dependent lipophilicity (logD) in data set [4] of -0.8. The Papp A→B in data set [3] is 1.6 ×10⁻⁶ cm/s.
In data set [1], `CNc1nc(OCC2CCNCC2)c2cc(-c3ccccc3)ccc2n1` came in with a solubility (thermodynamic) of over 750 µM. Further, in data set [2], the 50% effective concentration (EC50) stood at 74 µM. Also, the pH-dependent lipophilicity (logD) in data set [4] is -0.5. Moreover, the apical-to-basolateral permeability (Papp A→B) in data set [3] worked out at 29 ×10⁻⁶ cm/s.
As for `c1ccc(-c2ccc3nc(NCC4CC4)nc(NCC4CCNCC4)c3c2)cc1`, the thermodynamic solubility in data set [1] was determined as 20 µM (≈ 7.75 µg/mL). In data set [2], this compound displayed an EC50 of 8.6 µM. In data set [4], the logD was found to be 1.1. For the same compound, the Papp A→B in data set [3] is 3.5 ×10⁻⁶ cm/s.
With `CNCCCNc1nc(NCC2CCNCC2)c2cc(-c3ccccc3)ccc2n1`, the thermodynamic solubility in data set [1] was over 750 µM. Moreover, the EC50 in data set [2] is over 100 µM. The compound also gave a logD in data set [4] of 1.2. In data set [3], the apical-to-basolateral permeability (Papp A→B) turned out to be 0.6 ×10⁻⁶ cm/s.
One may read the Kd as a measure of binding affinity in units of concentration. Lower therefore signals a tighter complex. Consider `CN(C)CCCNc1nc(NCC2CCNCC2)c2cc(-c3ccccc3)ccc2n1`, for which the thermodynamic solubility in data set [1] is over 1000 µM. The compound also showed a 50% effective concentration (EC50) in data set [2] of 5.3 µM. In addition, the logD in data set [4] is under -1. In data set [5], binding was characterised by a dissociation constant (Kd) of 24 µM.
Take `CCCCCCNc1nc(NCCCN(C)C)nc2ccc(-c3ccccc3)cc12`: the thermodynamic solubility in data set [1] worked out at 60 µM (≈ 24.3 µg/mL). In data set [2], this compound registered an EC50 of 7.4 µM. For the same compound, the logD in data set [4] came out at 4. The apical-to-basolateral permeability (Papp A→B) in data set [3] came to 19 ×10⁻⁶ cm/s.
For `CNc1nc(NC)c2cc(-c3ccccc3)ccc2n1`, the thermodynamic solubility in data set [1] stood at 100 µM (≈ 26.4 µg/mL). In data set [2], the concentration giving a half-maximal response (EC50) was found to be 75 µM. In data set [4], the logD stood at 1.7.
